Experimental data published in US20240269298A1, “PHOSPHONYL DERIVATIVE, AND COMPOSITION AND PHARMACEUTICAL APPLICATION THEREOF” (XIZANG HAISCO PHARMACEUTICAL CO., LTD., priority 2021, published 2024).
Read-outs that look alike come from different tables or passages of the source.

How the values were obtained:
[1] = Pharmacokinetic test in mice; assay type: in vivo; conditions: male, ICR, mouse, po, administration i.g. (10 mg/kg), plasma
Summary of the method: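 Male ICR mice (20-25 g), fasted 12-14 h before dosing and fed 4 h after, received a single intravenous or intragastric dose. Orbital plasma sampled from 0 to 24 h (5 min-24 h points); LC-MS/MS quantitation for PK parameters and bioavailability.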

[2] = tested on: A431 (EGFR-WT) cells; experiment: Inhibitory activity on proliferation of A431 (EGFR-WT) cells (CTG, 72 h); assay type: cell-based; conditions: Homo sapiens, A-431
Summary of the method: (§1)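 Cells plated at 1000/well (NCI-H1975, RPMI1640+10% FBS) or 3000/well (A431, DMEM+10% FBS), dosed next day with compounds (0.1% DMSO final) for 72 h at 37 °C, 5% CO2. Viability by CTG luminescence, normalised to vehicle control; IC50 from nonlinear-regression dose-survival curves.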

[3] = tested on: NCI-H1975 (EGFR-L858R-T790M) cells; experiment: Inhibitory activity on proliferation of NCI-H1975 (EGFR-L858R-T790M) cells (CTG, 72 h); assay type: cell-based; conditions: Homo sapiens
Summary of the method: as §1

[4] = target: T1, EGFR protein in NCI-H1975 EGFR-L858R-T790M-C797S cells (Homo sapiens, UniProt P00533, C797S/L858R/T790M); experiment: Degradation activity on EGFR protein in NCI-H1975 EGFR-L858R-T790M-C797S cells, Method II (western blot, 48 h); assay type: cell-based; conditions: 48 h incubation, EGFR protein relative to DMSO control
T1 construct: expressed in transfected cells; host or cells: NCI-H1975 EGFR-L858R-T790M-C797S (kept under hygromycin selection)
T1 sequence (P00533 25-1210 T790M/C797S/L858R): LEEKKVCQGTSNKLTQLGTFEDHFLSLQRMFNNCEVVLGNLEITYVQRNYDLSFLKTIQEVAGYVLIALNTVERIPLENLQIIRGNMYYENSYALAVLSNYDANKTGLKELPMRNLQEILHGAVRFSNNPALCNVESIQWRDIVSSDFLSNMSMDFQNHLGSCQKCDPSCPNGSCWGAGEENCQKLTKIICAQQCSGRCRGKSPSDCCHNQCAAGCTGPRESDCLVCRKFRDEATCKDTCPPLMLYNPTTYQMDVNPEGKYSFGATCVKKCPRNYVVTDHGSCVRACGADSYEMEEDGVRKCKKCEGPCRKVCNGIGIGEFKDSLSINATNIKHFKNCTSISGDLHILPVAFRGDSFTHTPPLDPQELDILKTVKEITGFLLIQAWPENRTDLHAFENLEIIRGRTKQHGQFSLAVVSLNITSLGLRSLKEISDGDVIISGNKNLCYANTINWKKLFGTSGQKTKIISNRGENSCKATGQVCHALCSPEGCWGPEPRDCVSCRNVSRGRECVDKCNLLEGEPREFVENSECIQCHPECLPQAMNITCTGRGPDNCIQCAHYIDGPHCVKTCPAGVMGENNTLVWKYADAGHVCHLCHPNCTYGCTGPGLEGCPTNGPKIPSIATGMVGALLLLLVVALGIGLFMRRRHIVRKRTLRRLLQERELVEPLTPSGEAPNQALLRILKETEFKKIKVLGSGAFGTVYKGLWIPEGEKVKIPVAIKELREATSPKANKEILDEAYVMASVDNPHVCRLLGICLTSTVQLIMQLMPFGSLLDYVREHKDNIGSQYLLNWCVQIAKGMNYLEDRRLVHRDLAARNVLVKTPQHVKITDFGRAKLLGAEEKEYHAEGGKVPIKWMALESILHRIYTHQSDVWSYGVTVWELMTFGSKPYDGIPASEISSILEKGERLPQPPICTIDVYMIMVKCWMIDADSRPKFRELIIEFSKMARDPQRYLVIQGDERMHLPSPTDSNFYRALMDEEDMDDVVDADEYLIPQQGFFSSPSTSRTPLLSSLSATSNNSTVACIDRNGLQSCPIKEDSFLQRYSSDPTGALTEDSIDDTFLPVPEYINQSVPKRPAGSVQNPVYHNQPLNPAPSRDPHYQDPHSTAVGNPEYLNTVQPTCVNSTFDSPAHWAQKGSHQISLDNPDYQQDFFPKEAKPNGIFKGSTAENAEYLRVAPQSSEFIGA
Protocol: (§2) Protein sample preparation: NCI-H1975 EGFR-L858R-T790M-C797S cells were cultured in an incubator at 37° C. with 5% CO2, and the culture medium was RPMI1640+10% FBS+100 μg/mL hygromycin. The cells in the logarithmic phase were collected, and the cell suspension was adjusted to an appropriate concentration with a hygromycin-free culture medium, plated on a 6-well plate at a density of 350000 cells/well and a volume of 2 mL, and cultured overnight in an incubator at 37° C. with 5% CO2. The next day, the compounds at different concentrations were added. DMSO control wells were provided, wherein the concentration of DMSO in all wells was 0.1%. The 6-well plate was cultured in an incubator at 37° C. with 5% CO2 for 48 h, and then 30 μL of RIPA lysates (Beyotime, Cat. P0013B) containing protease inhibitors (Beyotime, Cat. P0013B) were added. The mixtures were lysed on ice for 30 min. Centrifugation was carried out at 13000 rpm/min at 4° C. for 20 minutes to collect protein supernatant samples, and protein quantification was performed by the BCA method. Western Blot detection samples were prepared.
(§3) Western blot detection: 20 μg of protein samples were added to each well, subjected to polyacrylamide gel electrophoresis and transferred to a membrane, and then diluted anti-EGFR (CST, Cat. 4267S) and […] (Kangchen, Cat. KC-5G4) antibodies were added and incubated overnight at 4° C. After washing the membrane, diluted goat anti-rabbit (Licor, Cat. 926-32211) and goat anti-mouse (Licor, Cat. 926-68070) antibodies were added and incubated in the dark for 45 min. Scanning and detection at wavelengths of 700 nm and 800 nm were performed with a far-infrared imaging system (Odyssey).
(§4) According to formula (3), the expression level of EGFR protein in the cells relative to the DMSO control group was calculated after incubation with different concentrations of compounds. wherein EGFRcompound was the fluorescence value of EGFR protein after incubation with compounds, and EGFRvehicle was the fluorescence value of EGFR protein in the DMSO control group. Using the Origin 9.2 software, the drug concentration DC50 values when the expression level of EGFR protein was 50% relative to the DMSO control group were calculated.

[5] = tested on: NCI-H1975 EGFR-L858R-T790M-C797S cells; experiment: Inhibitory activity on proliferation of NCI-H1975 EGFR-L858R-T790M-C797S cells (CellTiter-Glo, 72 h); assay type: cell-based; conditions: Homo sapiens
Summary of the method: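 Cells (1500/well) exposed to graded compound concentrations for 72 h at 37 °C in hygromycin-free RPMI1640 + 10% FBS, 0.1% DMSO vehicle. Viability by CellTiter-Glo luminescence relative to vehicle; IC50 from nonlinear sigmoidal dose-survival fit.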

[6] = target: T1, EGFR protein in NCI-H1975 EGFR-L858R-T790M-C797S cells; experiment: Degradation activity on EGFR protein in NCI-H1975 EGFR-L858R-T790M-C797S cells, Method I (western blot, 72 h); assay type: cell-based; conditions: 72 h incubation, EGFR protein relative to DMSO control
Protocol: as §2, with “200000” for “350000”, “72” for “48”, “min” for “minutes”, “Samples for western blot” for “Western Blot”, “detection” for “detection samples”
as §3, §4

[7] = read-out: IC50 (value in brackets)

AUC(0-t) [1]	IC50 [2]	IC50 ([3]; read-out: IC50 (class symbol))	IC50 [3, 7]	DC50 [4]	IC50 ([5]; read-out: IC50 (class symbol))	IC50 ([5]; read-out: IC50 (value))	AUC [1]	half-life [1]	DC50 [6]	SMILES
101000 ng·h/mL	≥ 10000 nM	< 100 nM	51 nM	< 100 nM	< 200 nM	79 nM	–	–	–	COc1cc(N2CCN(C[C@H]3CCN(c4ccc5c(c4)C(=O)N(C4CCC(=O)NC4=O)C5=O)C3)CC2)c(-c2cnn(C)c2)cc1Nc1ncc(Br)c(Nc2ccc(-c3ccccc3F)cc2P(C)(C)=O)n1 (stereo partly drawn) [Compound 117, 5-((R)-3-((4-(4-((5-bromo-4-((3-(dimethylphosphoryl)-2′-fluoro-[1,1′-biphenyl]-4-yl)amino)pyrimidin-2-yl)amino)-5-methoxy-2-(1-methyl-1H-pyrazol-4-yl)phenyl)piperazin-1-yl)methyl)pyrrolidin-1-yl)-2-(2,6-dioxopiperidin-3-yl)isoindoline-1,3-dione]
–	≥ 10000 nM	< 100 nM	94 nM	< 100 nM	–	–	–	–	–	COc1cc(N2CCN(C[C@@H]3CCN(c4ccc5c(c4)C(=O)N(C4CCC(=O)NC4=O)C5=O)C3)CC2)c(-c2cnn(C)c2)cc1Nc1ncc(Br)c(Nc2ccc(-c3ccccc3F)cc2P(C)(C)=O)n1 (stereo partly drawn) [Compound 116, 5-((S)-3-((4-(4-((5-bromo-4-((3-(dimethylphosphoryl)-2′-fluoro-[1,1′-biphenyl]-4-yl)amino)pyrimidin-2-yl)amino)-5-methoxy-2-(1-methyl-1H-pyrazol-4-yl)phenyl)piperazin-1-yl)methyl)pyrrolidin-1-yl)-2-(2,6-dioxopiperidin-3-yl)isoindoline-1,3-dione]
–	≥ 10000 nM	< 100 nM	68 nM	< 100 nM	–	–	–	–	–	COc1cc(N2CCC(N3CCN(c4ccc5c(c4)C(=O)N(C4CCC(=O)NC4=O)C5=O)CC3)CC2)c(-c2cnn(C)c2)cc1Nc1ncc(Cl)c(Nc2ccc(C3CC3)cc2P(C)(C)=O)n1 (centres unmarked) [Compound 113, 5-(4-(1-(4-((5-chloro-4-((4-cyclopropyl-2-(dimethylphosphoryl)phenyl)amino)pyrimidin-2-yl)amino)-5-methoxy-2-(1-methyl-1H-pyrazol-4-yl)phenyl)piperidin-4-yl)piperazin-1-yl)-2-(2,6-dioxopiperidin-3-yl)isoindoline-1,3-dione]

More lines, now with the values behind:

SMILES	AUC(0-t) [1]	IC50 [2]	IC50 ([3]; read-out: IC50 (class symbol))	IC50 [3, 7]	DC50 [4]	IC50 ([5]; read-out: IC50 (class symbol))	IC50 ([5]; read-out: IC50 (value))	AUC [1]	half-life [1]	DC50 [6]
COc1cc(N2CCC(N3CCN(c4ccc5c(c4)C(=O)N(C4CCC(=O)NC4=O)C5=O)CC3)CC2)c(-c2cnn(C)c2)cc1Nc1ncc(Br)c(Nc2ccc(C3CC3)cc2P(C)(C)=O)n1 (centres unmarked) [Compound 112, 5-(4-(1-(4-((5-bromo-4-((4-cyclopropyl-2-(dimethylphosphoryl)phenyl)amino)pyrimidin-2-yl)amino)-5-methoxy-2-(1-methyl-1H-pyrazol-4-yl)phenyl)piperidin-4-yl)piperazin-1-yl)-2-(2,6-dioxopiperidin-3-yl)isoindoline-1,3-dione]	–	≥ 10000 nM	< 100 nM	83 nM	< 100 nM	< 200 nM	127 nM	–	–	–
COc1cc(N2CCN(C[C@H]3CCN(c4ccc5c(c4)C(=O)N(C4CCC(=O)NC4=O)C5=O)C3)CC2)c(-c2cnn(C)c2)cc1Nc1ncc(Br)c(Nc2ccc(-c3ccccc3)cc2P(C)(C)=O)n1 (stereo partly drawn) [Compound 104, 5-((R)-3-((4-(4-((5-bromo-4-((3-(dimethylphosphoryl)-[1,1′-biphenyl]-4-yl)amino)pyrimidin-2-yl)amino)-5-methoxy-2-(1-methyl-1H-pyrazol-4-yl)phenyl)piperazin-1-yl)methyl)pyrrolidin-1-yl)-2-(2,6-dioxopiperidin-3-yl)isoindoline-1,3-dione]	47300 ng·h/mL	≥ 10000 nM	< 100 nM	54 nM	< 100 nM	< 200 nM	82 nM	–	–	–
COc1cc(N2CCN(C[C@@H]3CCN(c4ccc5c(c4)C(=O)N(C4CCC(=O)NC4=O)C5=O)C3)CC2)c(-c2cnn(C)c2)cc1Nc1ncc(Br)c(Nc2ccc(-c3ccccc3)cc2P(C)(C)=O)n1 (stereo partly drawn) [Compound 103, 5-((S)-3-((4-(4-((5-bromo-4-((3-(dimethylphosphoryl)-[1,1′-biphenyl]-4-yl)amino)pyrimidin-2-yl)amino)-5-methoxy-2-(1-methyl-1H-pyrazol-4-yl)phenyl)piperazin-1-yl)methyl)pyrrolidin-1-yl)-2-(2,6-dioxopiperidin-3-yl)isoindoline-1,3-dione]	34700 ng·h/mL	≥ 10000 nM	< 100 nM	61 nM	< 100 nM	< 200 nM	101 nM	–	–	–
COc1cc(N2CCC(CN3CCN(c4ccc5c(c4)C(=O)N(C4CCC(=O)NC4=O)C5=O)CC3)CC2)c(-c2cnn(C)c2)cc1Nc1ncc(Cl)c(Nc2ccccc2P(C)(C)=O)n1 (centres unmarked) [Compound 109, 5-(4-((1-(4-((5-chloro-4-((2-(dimethylphosphoryl)phenyl)amino)pyrimidin-2-yl)amino)-5-methoxy-2-(1-methyl-1H-pyrazol-4-yl)phenyl)piperidin-4-yl)methyl)piperazin-1-yl)-2-(2,6-dioxopiperidin-3-yl)isoindoline-1,3-dione]	–	≥ 10000 nM	< 100 nM	52 nM	< 100 nM	–	–	81500 ng·h/mL	4.53 h	–
COc1cc(N2CCC(CN3CCN(c4ccc5c(c4)C(=O)N(C4CCC(=O)NC4=O)C5=O)CC3)CC2)c(-c2cnn(C)c2)cc1Nc1ncc(Cl)c(Nc2ccc(-c3ccccc3F)cc2P(C)(C)=O)n1 (centres unmarked) [Compound 102, 5-(4-((1-(4-((5-chloro-4-((3-(dimethylphosphoryl)-2′-fluoro-[1,1′-biphenyl]-4-yl)amino)pyrimidin-2-yl)amino)-5-methoxy-2-(1-methyl-1H-pyrazol-4-yl)phenyl)piperidin-4-yl)methyl)piperazin-1-yl)-2-(2,6-dioxopiperidin-3-yl)isoindoline-1,3-dione]	–	≥ 10000 nM	100 to 500 nM	150 nM	< 100 nM	< 200 nM	152 nM	87900 ng·h/mL	9.49 h	–
COc1cc(N2CCN(C3CCN(c4ccc5c(c4)C(=O)N(C4CCC(=O)NC4=O)C5=O)CC3)CC2)c(-c2cnn(C)c2)cc1Nc1ncc(Br)c(Nc2ccc(-c3ccccc3)cc2P(C)(C)=O)n1 (centres unmarked) [Compound 99, 5-(4-(4-(4-((5-bromo-4-((3-(dimethylphosphoryl)-[1,1′-biphenyl]-4-yl)amino)pyrimidin-2-yl)amino)-5-methoxy-2-(1-methyl-1H-pyrazol-4-yl)phenyl)piperazin-1-yl)piperidin-1-yl)-2-(2,6-dioxopiperidin-3-yl)isoindoline-1,3-dione]	25000 ng·h/mL	≥ 10000 nM	< 100 nM	33 nM	–	< 200 nM	57 nM	–	–	< 100 nM
